Entries after “also recorded” stand apart in the source; their conditions may differ.

The test system of assay [1] is GPAT1. Kind of assay: Western blotting of GPAT1 in cardiomyocytes. Format: cell-based, Human. Particulars: hyperglycemia conditioned cardiomyocytes, diabetic drug plus Coenzyme Q10 (T+R). Here is the method: (§1) Human cardiomyocytes were subject to conditions simulating an diabetic environment experienced by the disease-relevant cells in vivo. Specifically, the cells were exposed to hyperglycemic conditions and hyperlipidemia conditions. The hyperglycemic condition was induced by culturing cells in media containing 22 mM glucose. The hyperlipidemia condition was induced by culturing the cells in media containing 1 mM L-carnitine, 0.7 mM Oleic acid and 0.7 mM Linoleic acid.
(§2) The cell model comprising the above-mentioned cells, wherein the cells were exposed to each condition described above, was additionally “interrogated” by exposing the cells to an “environmental perturbation” by treating with a diabetic drug (T) which is known to cause cardiotoxicity, a rescue molecule (R) or both the diabetic drug and the rescue molecule (T+R). Specifically, the cells were treated with diabetic drug; or treated with rescue molecule Coenzyme Q10 at 0, 50 µM, or 100 µM; or treated with both of the diabetic drug and the rescue molecule Coenzyme Q10.
(§3) Protein expression levels of GPAT1 and TAZ for each condition and each treatment were tested with western blotting.

In assay [2] the test system is TAZ. Kind of assay: Western blotting of TAZ in cardiomyocytes. The assay is classed as cell-based, Human. Particulars: hyperglycemia conditioned cardiomyocytes, diabetic drug plus Coenzyme Q10 (T+R). Here is the method:
as §1, §2, §3

For assay [3], the system named is HUVEC cells. Kind of assay: HUVEC apoptosis (annexin V/propidium iodide positive cells, flow cytometry). Format: cell-based, Human. Conditions: for propidium iodide positive apoptotic cells: 24 hours. Here is the method:
(§4) Methods: Human umbilical vein endothelial cell (HUVEC) fate decisions that modulate the angiogenic phenotype were examined in the presence of 100 or 1500 μM CoQ10 or excipient and compared to untreated control cells. Endothelial cell fate assays for apoptosis, proliferation, migration and 3-D tube formation within MATRIGEL® were performed.
(§5) To assess the potential effects of CoQ10 on endothelial migration, HUVEC migration was examined 5 hours post-cell clearance, in an endothelial scratch assay. […] In order to determine if the CoQ10 anti-tumor activity is due to effects on endothelial sprouting angiogenesis, we examined endothelial tube formation in 3-D MATRIGEL® cultures over time. Addition of excipient in both the gel and overlying media impaired tube formation compared to control.
CoQ10 has divergent effects on endothelial cell survival: Confluent and sub-confluent cultures of HUVEC cells were treated for 24 hours with 100 or 1500 μM CoQ10 and assayed for propidium iodide positive apoptotic cells. The results are shown in FIGS. 53A and 53B, respectively.

The subject of assay [4] is HUVEC cells. The experiment in a line: HUVEC migration, endothelial scratch assay. Conditions: for closure of the cleared area (scratch assay): confluent HUVEC. The assay is classed as cell-based, Human. Here is the method:
as §4, §5
CoQ10 decreases endothelial cell migration: HUVEC cells were grown to confluence tested for migration using the ‘scratch’ assay. 100 or 1500 μM CoQ10 was applied at the time of scratching and closure of the cleared area was monitored over 48 hours.

Assay [5] relates to HUVEC cells. The experiment in a line: Endothelial tube formation in 3-D MATRIGEL
Particulars: for endothelial tube formation: 3-D matrigel. The assay is classed as cell-based, Human. Here is the method: as §4, §5
CoQ10 impairs endothelial tube formation: Endothelial cells growing in 3-D matrigel form tubes over time. Differential effects of 100 μM and 1500 μM CoQ10 on tube formation were observed. […] Images shown in FIG. 56 were taken at 72 hours.

Assay [6] deals with caspase 3. Kind of assay: Caspase 3 activation in endothelial cells. The assay is classed as cell-based. From the text:
Angiogenesis is a key enabling feature of tumor progression that provides oxygen and nutrients that are required for tumor cell growth. We have investigated the anti-angiogenic properties of CoQ10, an anti-tumor drug that is currently under investigation in human studies of cancer progression.

Setting [7] is: concentration not stated (summary).

Turning to `COC1=C(OC)C(=O)C(C/C=C(\C)CC/C=C(\C)CC/C=C(\C)CC/C=C(\C)CC/C=C(\C)CC/C=C(\C)CC/C=C(\C)CC/C=C(\C)CC/C=C(\C)CCC=C(C)C)=C(C)C1=O` [CoQ10, Coenzyme Q10], the “protein expression level of GPAT1” value in assay [1] is on record as “normalized”. Besides, the “protein expression level of TAZ” value in assay [2] is recorded as “normalized”. Further, the “HUVEC apoptosis (annexin V/propidium iodide positive cells)” value in assay [3] (1500 μM CoQ10, compared to excipient or control cells) is recorded as “increase”. The “apoptosis / cell death of sub-confluent (angiogenic/proliferating) endothelial cells” value in assay [3] (setting [7]) was “increases apoptosis; also recorded: selectively induces cell death”. Moreover, in assay [3] (concentration not stated or low doses (summary), compared to controls), the “cell death of confluent (non-proliferating) endothelial cells” value is “protective; also recorded: decreased compared to controls”. Also, the “propidium iodide positive apoptotic cells” value is on record as “protective” in assay [3] (confluent HUVEC, 100 or 1500 μM CoQ10) and “increased apoptosis” in assay [3] (sub-confluent HUVEC, 1500 μM CoQ10). Besides, the HUVEC migration result in assay [4] (5 hours post-cell clearance, 100 and 1500 μM, excipient also impaired migration) is given as “significantly impaired”. For the same compound, the “endothelial migration in scratch assays” value in assay [4] (setting [7]) is listed as “potent inhibition of endothelial migration; also recorded: impairs endothelial migration”. Also, the “closure of the cleared area (scratch assay)” value is reported as “delayed endothelial closure” in assay [4] (100 μM CoQ10, monitored over 48 hours, compared to control) and “prevented closure” in assay [4] (1500 μM CoQ10, up to 48 hours). Besides, the HUVEC tube formation entry in assay [5] (1500 μM CoQ10, compared to both excipient and control untreated cells, 24 hours up to 96 hours) is given as “further impaired”. Also, the endothelial tube formation result is “modest effect” in assay [5] (100 μM CoQ10); “Impaired cell to cell association and breakdown of early tube structure was significant; also recorded: dramatic disruption of endothelial tube formation” in assay [5] (1500 μM CoQ10, images at 72 hours). Further, the “tube formation in 3-D MATRIGEL tube formation assays” value in assay [5] (setting [7]) was “impairs”. The “activation of caspase 3” value in assay [6] is reported as “induces activation of caspase 3”.

(Values after patent US12437835B2, “Interrogatory cell-based assays and uses thereof” (Berg LLC, priority 2012, dated 2025).)
